Experimental data reported in US20220054513A1, “COMBINATION COMPOSITIONS COMPRISING A BETA-LACTAMASE INHIBITOR” (VenatoRx Pharmaceuticals, Inc., priority 2018, published 2022).

System: Acinetobacter baumannii-calcoaceticus species complex clinical isolates
Assay: MIC of triple combinations (Compound 1, sulbactam, meropenem or cefepime), 141 clinical isolates
Type: cell-based
Conditions: Acinetobacter
Excerpt: For a more comprehensive assessment of the ability of test compounds to potentiate sulbactam in triple combinations with β-lactams additional MIC assays were utilized.

What does the source list for `CC1(C)[C@H](C(=O)O)N2C(=O)C[C@H]2S1(=O)=O` [SUL, Sulbactam]?
MIC: 128 µg/mL; MIC (strain 990089, Cmpd 1 at 4 μg/mL in combinations): 16 µg/mL; MIC (strain 993131, Cmpd 1 at 4 μg/mL in combinations): 32 µg/mL; MIC (strain 993139, Cmpd 1 at 4 μg/mL in combinations): 32 µg/mL; MIC (strain 994180, Cmpd 1 at 4 μg/mL in combinations): 16 µg/mL; MIC (strain 994181, Cmpd 1 at 4 μg/mL in combinations): 16 µg/mL; MIC (strain 995771, Cmpd 1 at 4 μg/mL in combinations): 16 µg/mL; MIC (strain 996612, Cmpd 1 at 4 μg/mL in combinations): 64 µg/mL; MIC (strain 996707, Cmpd 1 at 4 μg/mL in combinations): 32 µg/mL; MIC (strain 996869, Cmpd 1 at 4 μg/mL in combinations): 32 µg/mL; MIC (strain 997574, Cmpd 1 at 4 μg/mL in combinations): 32 µg/mL; MIC (strain 998107, Cmpd 1 at 4 μg/mL in combinations): 16 µg/mL; MIC (strain 998532, Cmpd 1 at 4 μg/mL in combinations): 16 µg/mL; MIC (strain 998898, Cmpd 1 at 4 μg/mL in combinations): 64 µg/mL; MIC (strain 998907, Cmpd 1 at 4 μg/mL in combinations): 32 µg/mL; MIC (strain 999306, Cmpd 1 at 4 μg/mL in combinations): 8 µg/mL; MIC (strain 999343, Cmpd 1 at 4 μg/mL in combinations): 32 µg/mL; MIC (strain 1001007, Cmpd 1 at 4 μg/mL in combinations): 32 µg/mL; MIC (strain 1001143, Cmpd 1 at 4 μg/mL in combinations): 32 µg/mL; MIC (strain 1001611, Cmpd 1 at 4 μg/mL in combinations): 16 µg/mL; MIC (strain 1002208, Cmpd 1 at 4 μg/mL in combinations): 16 µg/mL; MIC (strain 1002247, Cmpd 1 at 4 μg/mL in combinations): 64 µg/mL; MIC (strain 1002688, Cmpd 1 at 4 μg/mL in combinations): 16 µg/mL; MIC (strain 1002952, Cmpd 1 at 4 μg/mL in combinations): 64 µg/mL; MIC (strain 1003557, Cmpd 1 at 4 μg/mL in combinations): 8 µg/mL; MIC (strain 1003662, Cmpd 1 at 4 μg/mL in combinations): 16 µg/mL; MIC (strain 1003787, Cmpd 1 at 4 μg/mL in combinations): 32 µg/mL; MIC (strain 1004867, Cmpd 1 at 4 μg/mL in combinations): 64 µg/mL; MIC (strain 1005265, Cmpd 1 at 4 μg/mL in combinations): 32 µg/mL; MIC (strain 1005290, Cmpd 1 at 4 μg/mL in combinations): 16 µg/mL; MIC (strain 1007660, Cmpd 1 at 4 μg/mL in combinations): 32 µg/mL; MIC (strain 1008508, Cmpd 1 at 4 μg/mL in combinations): 16 µg/mL; MIC (strain 1008510, Cmpd 1 at 4 μg/mL in combinations): 32 µg/mL; MIC (strain 1008730, Cmpd 1 at 4 μg/mL in combinations): 32 µg/mL; MIC (strain 1008756, Cmpd 1 at 4 μg/mL in combinations): 64 µg/mL; MIC (strain 1010245, Cmpd 1 at 4 μg/mL in combinations): 16 µg/mL; MIC (strain 1010383, Cmpd 1 at 4 μg/mL in combinations): 32 µg/mL; MIC (strain 1011959, Cmpd 1 at 4 μg/mL in combinations): 16 µg/mL; MIC (strain 1013022, Cmpd 1 at 4 μg/mL in combinations): 8 µg/mL; MIC (strain 1013035, Cmpd 1 at 4 μg/mL in combinations): 16 µg/mL; MIC (strain 1013055, Cmpd 1 at 4 μg/mL in combinations): 16 µg/mL; MIC (strain 1013322, Cmpd 1 at 4 μg/mL in combinations): 16 µg/mL; MIC (strain 1014143, Cmpd 1 at 4 μg/mL in combinations): 32 µg/mL; MIC (strain 1014646, Cmpd 1 at 4 μg/mL in combinations): 16 µg/mL; MIC (strain 1014815, Cmpd 1 at 4 μg/mL in combinations): 64 µg/mL; MIC (strain 1014866, Cmpd 1 at 4 μg/mL in combinations): 32 µg/mL; MIC (strain 1014878, Cmpd 1 at 4 μg/mL in combinations): 32 µg/mL; MIC (strain 1014890, Cmpd 1 at 4 μg/mL in combinations): 32 µg/mL; MIC (strain 1016545, Cmpd 1 at 4 μg/mL in combinations): 16 µg/mL; MIC (strain 1016836, Cmpd 1 at 4 μg/mL in combinations): 32 µg/mL; MIC (strain 1017679, Cmpd 1 at 4 μg/mL in combinations): 32 µg/mL; MIC (strain 1018109, Cmpd 1 at 4 μg/mL in combinations): 4 µg/mL; MIC (strain 1018801, Cmpd 1 at 4 μg/mL in combinations): 64 µg/mL; MIC (strain 1018802, Cmpd 1 at 4 μg/mL in combinations): 64 µg/mL; MIC (strain 1018804, Cmpd 1 at 4 μg/mL in combinations): 32 µg/mL; MIC (strain 1018806, Cmpd 1 at 4 μg/mL in combinations): 64 µg/mL; MIC (strain 1018807, Cmpd 1 at 4 μg/mL in combinations): 32 µg/mL; MIC (strain 1018851, Cmpd 1 at 4 μg/mL in combinations): 64 µg/mL; MIC (strain 1023034, Cmpd 1 at 4 μg/mL in combinations): 16 µg/mL; MIC (strain 1023074, Cmpd 1 at 4 μg/mL in combinations): 32 µg/mL; MIC (strain 1023207, Cmpd 1 at 4 μg/mL in combinations): 16 µg/mL; MIC (strain 1023329, Cmpd 1 at 4 μg/mL in combinations): 16 µg/mL; MIC (strain 1024119, Cmpd 1 at 4 μg/mL in combinations): 32 µg/mL; MIC (strain 1024215, Cmpd 1 at 4 μg/mL in combinations): 16 µg/mL; MIC (strain 1026990, Cmpd 1 at 4 μg/mL in combinations): 16 µg/mL; MIC (strain 1026992, Cmpd 1 at 4 μg/mL in combinations): 16 µg/mL; MIC (strain 1027234, Cmpd 1 at 4 μg/mL in combinations): 8 µg/mL; MIC (strain 1027590, Cmpd 1 at 4 μg/mL in combinations): 32 µg/mL; MIC (strain 1027603, Cmpd 1 at 4 μg/mL in combinations): 8 µg/mL; MIC (strain 1027748, Cmpd 1 at 4 μg/mL in combinations): 8 µg/mL; MIC (strain 1028193, Cmpd 1 at 4 μg/mL in combinations): 64 µg/mL; MIC (strain 1029770, Cmpd 1 at 4 μg/mL in combinations): 32 µg/mL; MIC (strain 1029913, Cmpd 1 at 4 μg/mL in combinations): 16 µg/mL; MIC (strain 1030427, Cmpd 1 at 4 μg/mL in combinations): 16 µg/mL; MIC (strain 1030928, Cmpd 1 at 4 μg/mL in combinations): 64 µg/mL; MIC (strain 1030945, Cmpd 1 at 4 μg/mL in combinations): 32 µg/mL; MIC (strain 1031136, Cmpd 1 at 4 μg/mL in combinations): 32 µg/mL; MIC (strain 1031167, Cmpd 1 at 4 μg/mL in combinations): 64 µg/mL; MIC (strain 1031177, Cmpd 1 at 4 μg/mL in combinations): 16 µg/mL; MIC (strain 1031191, Cmpd 1 at 4 μg/mL in combinations): 16 µg/mL; MIC (strain 1031211, Cmpd 1 at 4 μg/mL in combinations): 32 µg/mL; MIC (strain 1031238, Cmpd 1 at 4 μg/mL in combinations): 32 µg/mL; MIC (strain 1031566, Cmpd 1 at 4 μg/mL in combinations): 32 µg/mL; MIC (strain 1032669, Cmpd 1 at 4 μg/mL in combinations): 16 µg/mL; MIC (strain 1032761, Cmpd 1 at 4 μg/mL in combinations): 64 µg/mL; MIC (strain 1033340, Cmpd 1 at 4 μg/mL in combinations): 16 µg/mL; MIC (strain 1033979, Cmpd 1 at 4 μg/mL in combinations): 64 µg/mL; MIC (strain 1034048, Cmpd 1 at 4 μg/mL in combinations): 32 µg/mL; MIC (strain 1034880, Cmpd 1 at 4 μg/mL in combinations): 32 µg/mL; MIC (strain 1034912, Cmpd 1 at 4 μg/mL in combinations): 32 µg/mL; MIC (strain 1034913, Cmpd 1 at 4 μg/mL in combinations): 32 µg/mL; MIC (strain 1034916, Cmpd 1 at 4 μg/mL in combinations): 64 µg/mL; MIC (strain 1034925, Cmpd 1 at 4 μg/mL in combinations): 32 µg/mL; MIC (strain 1034931, Cmpd 1 at 4 μg/mL in combinations): 16 µg/mL; MIC (strain 1034951, Cmpd 1 at 4 μg/mL in combinations): 32 µg/mL; MIC (strain 1034962, Cmpd 1 at 4 μg/mL in combinations): 32 µg/mL; MIC (strain 1035144, Cmpd 1 at 4 μg/mL in combinations): 32 µg/mL
